# Laboratory results from patent US7998971B2, “Combinations containing a 4-acylaminopyridine derivative” (BrainCells Inc., priority 2006, dated 2011).
# Like-named read-outs stand apart in the source and are kept apart here.
# Tests used:
# [1] = test system: human neural stem cells (hNSCs); test: Neuronal differentiation of human neural stem cells (TUJ-1 staining, concentration response curves); type: cell-based; conditions: for EC50: Homo sapiens, Neural stem cell; for maximum neuronal differentiation percent of positive control: MKC-231 CRC 0.01-31.6 uM, azakenpaullone CRC 0.001-3.2 uM
# From the text: Mitogen-free test media with a positive control for neuronal differentiation was used along with basal media without growth factors as a negative control. […]
# mGlu7 and mGlu8 = conditions: above 1 μM; cited from earlier work
# [2] = target: acetylcholinesterase (AChE) (Homo sapiens, UniProt P22303); conditions: cited from earlier work
# acetylcholinesterase (AChE), sequence (P22303 32-614, species assumed): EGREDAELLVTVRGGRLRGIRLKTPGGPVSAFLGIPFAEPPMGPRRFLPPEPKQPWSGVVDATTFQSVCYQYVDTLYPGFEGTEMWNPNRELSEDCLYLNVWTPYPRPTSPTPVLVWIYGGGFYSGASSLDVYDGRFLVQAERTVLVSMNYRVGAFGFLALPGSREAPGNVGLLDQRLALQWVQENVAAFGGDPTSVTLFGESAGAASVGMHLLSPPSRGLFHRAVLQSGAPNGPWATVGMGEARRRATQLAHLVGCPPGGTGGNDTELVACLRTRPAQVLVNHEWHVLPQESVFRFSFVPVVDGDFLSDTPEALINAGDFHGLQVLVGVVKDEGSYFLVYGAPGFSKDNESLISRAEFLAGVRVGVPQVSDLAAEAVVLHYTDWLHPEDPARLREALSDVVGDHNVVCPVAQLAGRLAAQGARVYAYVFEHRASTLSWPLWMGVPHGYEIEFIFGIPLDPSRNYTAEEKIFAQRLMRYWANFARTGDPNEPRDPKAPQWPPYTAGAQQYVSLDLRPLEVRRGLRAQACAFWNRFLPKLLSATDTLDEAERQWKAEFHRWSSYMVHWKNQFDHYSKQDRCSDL
# [3] = agent alone, hNSCs, percentage of neuronal positive control, basal media subtracted, read-out: EC50 of neuronal differentiation, agent used alone
structure (smiles),measurement,setting,value
"Cc1onc(O)c1CC(N)C(=O)O (stereo not drawn) [AMPA, α-amino-3-hydroxy-5-methylisoxazole-4-propionic acid]",effect on differentiation at 0.316 μM,[1]; AMPA alone at 0.316 μM,no effect
same,EC50,"[1]; read-out: EC50 of neuronal differentiation, agent used alone",~31.6 µM
"N[C@](CC1c2ccccc2Oc2ccccc21)(C(=O)O)[C@H]1C[C@@H]1C(=O)O [LY341495, (2S)-2-amino-2-(1S,2S-2-carboxycycloprop-1-yl)-3-(xanth-9-yl) propanoic acid]",activity against mGlu7 and mGlu8 at higher concentrations,mGlu7 and mGlu8,antagonist activity
"Cc1oc2nc3c(c(NC(=O)CN4CCCC4=O)c2c1C)CCCC3 [MKC-231, 2-(2-oxopyrrolidin-1-yl)-N-(2,3-dimethyl-5,6,7,8-tetrahydrofuro[2,3-b]-quinolin-4-yl)acetoamide]",EC50,[1]; [3],8.6 µM
same,maximum neuronal differentiation percent of positive control,[1]; hNSCs,53%
same,AChE inhibitory activity,[2],does not have such inhibitory activity
Clc1ccc2c(c1)N=C(N1CCNCC1)c1ccccc1N2 [N-desmethylclozapine],neurogenic activity,[1]; assays as disclosed herein,highly neurogenic
CC(C)c1c(C(=O)Nc2ccccc2)c(-c2ccccc2)c(-c2ccc(F)cc2)n1CC[C@@H](O)C[C@@H](O)CC(=O)O [atorvastatin],EC50,[1]; [3],0.003 µM
O=C1Cc2c([nH]c3ccc(Br)cc23)-c2ncccc2N1 [azakenpaullone],maximum neuronal differentiation percent of positive control,[1]; hNSCs,120%
C[C@]12CC[C@@H]3c4ccc(O)cc4CC[C@H]3[C@@H]1CC[C@@H]2O [estradiol],EC50,"[1]; agent alone, hNSCs, extrapolated, read-out: EC50 of neuronal differentiation, agent used alone, estimated by extrapolation of the observed data",4.4 µM
O=C1CC[C@@]2(O)[C@H]3Cc4ccc(O)c5c4[C@@]2(CCN3CC2CC2)[C@H]1O5 [naltrexone],EC50,[1]; [3],4.5 µM
CN(CCOc1ccc(CC2SC(=O)NC2=O)cc1)c1ccccn1 (stereo not drawn) [rosiglitazone],EC50,[1]; [3],3.6 µM
